# Data published in PMC4161390, “Design and Synthesis of a Cell-Permeable, Drug-Like Small Molecule Inhibitor Targeting the Polo-Box Domain of Polo-Like Kinase 1” (PLoS ONE, 2014).
# Target: T1, Polo-like kinase 1 polo-box domain (Plk1-PBD) (Homo sapiens, UniProt P53350)
# T1 construct: HA-EGFP-Plk1 in mitotic 293A lysates
# Assay: ELISA-based Plk1 PBD competition assay (moderate activity)
# Type: biochemical
# T1 sequence (P53350 whole entry, the tested form may be a part): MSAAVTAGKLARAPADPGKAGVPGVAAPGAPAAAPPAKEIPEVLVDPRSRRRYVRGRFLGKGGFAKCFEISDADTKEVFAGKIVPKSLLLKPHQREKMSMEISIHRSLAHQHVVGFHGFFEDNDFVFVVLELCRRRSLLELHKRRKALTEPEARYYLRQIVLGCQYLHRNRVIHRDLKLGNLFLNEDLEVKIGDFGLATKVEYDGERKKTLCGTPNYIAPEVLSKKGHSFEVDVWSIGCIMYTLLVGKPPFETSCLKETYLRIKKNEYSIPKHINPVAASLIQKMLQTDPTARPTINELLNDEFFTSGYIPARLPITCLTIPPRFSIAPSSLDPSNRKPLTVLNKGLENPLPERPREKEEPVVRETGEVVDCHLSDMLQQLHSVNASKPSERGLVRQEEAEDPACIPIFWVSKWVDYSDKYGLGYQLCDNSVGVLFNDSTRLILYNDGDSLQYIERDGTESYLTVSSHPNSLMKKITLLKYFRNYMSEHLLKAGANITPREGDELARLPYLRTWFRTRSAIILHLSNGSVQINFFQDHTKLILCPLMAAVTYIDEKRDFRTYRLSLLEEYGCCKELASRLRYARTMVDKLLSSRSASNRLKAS
structure (smiles),measurement,value
"O=c1c(O)cccc2cc(O)c(O)c(O)c12 [PPG, purpurogallin]",ELISA-based Plk1 PBD competition assay (moderate activity),PPG PLS5 Bg-5 Bg-6|moderate weak weak weak|
